Measurements as given in a melting point compilation (Tetko et al.; mined from patent text by program, amines drawn as free bases though some values may be those of a salt).

melting point [°C] | SMILES
223 to 225 | CC1(COc2ccc(CC3SC(=O)NC3=O)cc2)CCc2cc(C(=O)O)ccc2O1 (stereo unspecified)
146 to 147 | CON=C1C(c2ccccc2)=C(c2ccc(S(C)(=O)=O)cc2)C1(C)C
156 to 161 | COc1ccc(CN(C)CCCc2ccc(NC(=O)c3[nH]c4ccccc4c3C(=O)c3ccccc3)cc2)cc1OC
136 | Cc1cccc(C)c1NC(=O)CC1CCN(CCC2CCOc3ccccc32)CC1 (stereo unspecified)
269 to 271 | O=C(NCc1ccc(Cl)cc1)c1n[nH]c2ccccc2c1=O
116 to 118 | O=C(O)CCCCCCC1(CCCCCCC(=O)O)C(=O)NC(=O)N1CCC(O)C1CCCCC1 (stereo unspecified)
68 to 69 | COc1ccc(/C=C/C(=O)C#CCO)cc1
132 | CCCc1c(OCCCOc2ccccc2)ccc2c1OC(CCC(=O)O)(CCC(=O)O)CC2O (stereo unspecified)
176 to 178 | O=C(Nc1ccc(Cl)c(C(F)(F)F)c1)N[C@H]1CC[C@H](Oc2ccc(C(F)(F)F)cn2)CC1
174 | O=[N+]([O-])c1ccc(OCc2ccc(Cl)nc2)cc1F
180 to 182 | COC(=O)c1cc2nccnc2cc1N
180 | Cc1cc(SC2=C(O)CC(CCc3ccc(O)cc3)(C3CCCCC3)OC2=O)c(C(C)(C)C)cc1OS(=O)(=O)c1ccccc1 (stereo unspecified)
169 to 171 | Cc1oc(-c2ccccc2)nc1CCOc1ccc(CCCC2OC(=O)NC2=O)cn1 (stereo unspecified)
72.5 to 74 | CNS(=O)(=O)Cc1ccccc1Br
175 | O=C(CN1CCNCC1)Cn1c2ccc(Br)cc2c2cc(Br)ccc21
181 | NS(=O)(=O)c1ccc(N2CCN(CCC3C=Cc4ccccc43)CC2)cc1 (stereo unspecified)
316 to 318 | O=S1(=O)c2ccccc2Nc2nccnc21
251 to 253 | CC(C)c1[nH]n(-c2c(Cl)cc(Cl)cc2Cl)c2nc(Cc3ccc(NC(=O)N4CCN(C)CC4)cc3)nc(=O)c1-2
73 | CCC(=O)OC(C#N)C(C#N)c1cccc(OC)c1 (stereo unspecified)
141 to 145 | COc1ccc(Br)c(C(=NNS(=O)(=O)c2ccccc2)N2CCN(C)CC2)c1
> 250 | Cc1cccc(C)c1NC(=O)c1ccc(CN2C(=O)C3(COc4cc5c(cc43)CCO5)c3ccccc32)cc1 (stereo unspecified)
182 to 184 | Nc1ncnc2c1c(-c1ccc(Oc3ccccc3)cc1)cn2C1CCNC1 (stereo unspecified)
138 to 139 | NC(Cc1ccccc1)C(=O)CCC(=O)O (stereo unspecified)
101 to 103 | O=C(OC1CCN(Cc2ccccc2)CC1)c1cccc(I)c1
52 to 54 | COC(=O)Cc1cccc(C(=O)c2ccccc2)c1N

melting point [°C] | SMILES
> 230 | FC1(Cl)Oc2cc3nc(C(Cl)(Cl)Cl)[nH]c3cc2OC1(F)Cl (stereo unspecified)
60 | OC(=S)CCc1ccccc1
108 | CCCCCCOC(=O)COc1ccc(F)c(C(N)=O)c1F
92 to 93 | CC1=CCC2C(=O)N(c3ccccc3)C(=O)C2C1 (stereo unspecified)
130 to 132 | O=[N+]([O-])c1ccc(N2CC(O)C2)c(F)c1
172 to 174 | Cc1cc(Oc2ncc(C(F)(F)F)cc2Cl)nn1C(=O)Nc1cccc([N+](=O)[O-])c1
175 to 176 | Cc1nc(N2CCN(Cc3ccc(F)cc3)C2=O)sc1C(=O)NCc1ccncn1
> 250 | O=c1[nH]c2cscc2c(=O)n1CCN1CCN(c2ccc(Cl)cc2)CC1
154 to 156 | ICCOc1ccc(C2=C(c3ccccc3)CCCc3ccccc32)cc1
191 to 193 | CCC(OC(=O)CO)c1ccc(Cl)c2nc3n(c12)CCCN3c1ccc(Cl)cc1Cl (stereo unspecified)
86 to 90 | CC1=Cc2cc(F)c(F)cc2C1
199 | O=c1[nH]cnc2c1CCN(Cc1ccccc1)C2
178 to 180 | COc1ccc(N2CCN(CCC3OCCc4ccc(C(N)=O)cc43)CC2)cc1 (stereo unspecified)
218 to 220 | COc1cc2c(cc1OC)/C(=C\c1ccc(OP(=O)(O)O)cc1)C(=O)N2
73 | CCCCNc1nc(N)nc(NCCCC)n1
208 to 209 | N#Cc1c(N)nc2ccccc2c1Nc1cccs1
230 | CN(C)C(=O)Nc1cccc(-c2nc(=O)c3ccccc3s2)n1
96 to 97 | CCOC(=O)C1=C(CO)NC(C)=C(C(=O)OCCOCc2ccccc2)C1c1ccccc1[N+](=O)[O-] (stereo unspecified)
152 to 153 | CCCCNc1cccc2c1C(=O)c1cccc(NCCCC)c1C2=O
211 to 213 | O=C(O)CCn1nc(-c2c(-c3ccccc3)nn3ccccc23)cc1O
58 | CC1(C(=O)Nc2ccc(OC(=O)Cc3cccs3)c(Cl)c2Cl)CCCCC1
195 to 196 | O=C1N(Cc2cccc(C(F)(F)F)n2)c2ccccc2C12COc1cc3c(cc12)OCCO3 (stereo unspecified)
91 to 92 | COC(=O)C(C)Oc1ccc(Oc2ncc(Cl)cc2[N+](=O)[O-])cc1 (stereo unspecified)
135 to 138 | Cc1noc2cc3c(cc12)C1(CO3)C(=O)N(CCC(C)C)c2ccccc21 (stereo unspecified)
> 250 | Fc1ccc(Nc2ncnc3ccc(-n4cncn4)cc23)c(F)c1

melting point [°C] | SMILES
148 to 150 | Cc1nsc(Br)c1S(N)(=O)=O
97 to 98 | O=C(O)CCCCCOc1cccc(CCCCCCOc2ccc3c(c2CCCc2ccccc2)OCCC3=O)c1CCC(=O)O
185 to 186 | COc1cnc(OC)n2nc(N)nc12
188 to 189 | N#CNC(=Nc1ccncc1)NCCCCCOc1ccccc1
200 to 201 | O=C(O)C1c2ccccc2COc2ccccc21 (stereo unspecified)
104 to 106 | CCOC(=O)CCCCCn1c(-c2ccccc2)c(-c2ccccc2)n(-c2ccccc2)c1=O
179 to 184 | O=C1N(C2CCCCC2)CC(CN2CCC(O)(c3ccccc3)CC2)C1(c1ccccc1)c1ccccc1 (stereo unspecified)
166 to 167 | O=C(O)c1ccsc1Cl
201 to 203 | c1ccc(-c2ccc3cnc(NCc4cccnc4)nn23)cc1
295 to 297 | Cc1nc(-c2ccccn2)n2cn[nH]c(=O)c12
164 to 166 | COc1cc2sc(-c3cccnc3)nc2cc1N=C=S
252 to 254 | Cc1c(C(=O)Nc2cc(Cl)c(N3CCC(N4CCOCC4)CC3)c(Cl)c2)cnn1-c1ccc(C(F)(F)F)cc1
127 to 129 | COc1ccc(C2Sc3ccc(OC)cc3N(CCN(C)C)C(=O)C2O)cc1 (stereo unspecified)
128 | Cc1ccc(F)cc1NC(=O)CN1CCNC(CO)C1 (stereo unspecified)
276 to 277 | O=c1[nH]c2ccc(-c3cccc([N+](=O)[O-])c3)cc2s1
145 | COc1cc(C=O)ccc1NC(C)=O
> 250 | Nc1nc(S(N)(=O)=O)c2[nH]cnc2n1
156 to 158 | COc1c(F)cc(Cn2cc[nH]c2=S)cc1F
74 to 75 | CCCCCCCCCCCCCCCCOc1ccc(OCC(=O)NCCc2ccccn2)cc1
70 to 72 | Cc1sc(N)c(C(=O)c2ccc(Cl)cc2)c1CN1CCN(c2ccc(F)cc2)CC1
71 to 73 | O=CC1=Cc2cc(OCCCc3ccccc3)ccc2OC1
215 to 218 | Cc1nc(-c2ccc(N3CC(C(=O)O)OC3=O)cc2)no1 (stereo unspecified)
180 to 183 | CC(=O)Nc1cccc2c1C(=O)OC2=O
218 to 220 | CC(=O)Oc1cccc2c1C(=O)c1c(OC(C)=O)cc(C#N)cc1C2=O
107 to 110 | O=C(O)C(Cl)=C(Cl)C(=O)O

melting point [°C] | SMILES
65 to 67 | CCN1c2ncccc2C(=O)N(C)c2ccc(-c3cnn(C)c3)nc21
126 to 129 | CCc1nc2c(c(C)c(C)n3nnnc23)n1CCOCCNS(=O)(=O)CCCCl
183 to 184 | CC(C)(C)OC(=O)Nc1ccccc1NC(=O)c1ccc(C#N)nc1
158 to 161 | NC(=O)c1cc(NCc2ccccc2Cl)c([N+](=O)[O-])cc1[N+](=O)[O-]
220 to 222 | O=C(NCc1ccc(Cl)cc1)c1cn2c3c(cc(CN4CCOCC4)cc3c1=O)OC(c1ccco1)C2 (stereo unspecified)
128 to 132 | Cc1ccc(C2=NNC(=O)CC2)cc1OCC1CO1 (stereo unspecified)
121 to 122 | Clc1ccc(CCC(Cn2ccnc2)Sc2ccccc2Cl)s1 (stereo unspecified)
164 to 166 | O=C(c1ccccc1C(c1ccc(O)cc1)c1ccc(O)cc1)N1CC2CCC(CC2)C1
101 to 105 | C=CCOC(=O)N1C[C@@H](S)C[C@H]1CNC(=O)c1ccc(C(=O)NCc2ccc(Cl)c(Cl)c2)cn1
178 to 180 | CC1=C(c2ccncc2)SC(c2ccco2)C(=O)N1 (stereo unspecified)
185 to 187 | O=C(O)Cc1c(-c2ccccc2)nn(-c2cccnc2)c1-c1ccccc1
218 to 219 | COc1cc2c(c3c1OC(C)(C)C3)C(c1ccnc(-n3c(=O)cc(C)c4ccccc43)c1)=NC(C)(C)C2
152 to 154 | N#Cc1c(N2CCCCC2)cc(-c2cccs2)c2c1-c1ccccc1C2
79 to 81 | COC(=O)c1cc(Cl)cnc1OC
103 to 104 | OCCc1ccc2cc(Br)ccc2n1
150 | CCOc1ccc2c(c1)C(C)(c1cc(NC(=O)CN(C)C)ccc1Cl)C(=O)N2S(=O)(=O)c1ccc(C(=O)NC(C)(C)C)cc1OC (stereo unspecified)
116 to 118 | COc1cc2c(cc1C)CCN=C2C1(c2ccsc2)CC1
115 to 118 | O=C(CCNC(=O)OCc1ccccc1)NCCSC(=O)c1ccccc1
155 to 156 | COc1cc2c(cc1OC)C(C(C#N)SCCCO)=NCC2 (stereo unspecified)
173 to 174 | Cc1ccc2oc(=O)n(-c3ccnc(N)c3)c2c1
178 to 181 | Cn1cc(-c2cccc(I)c2)c(=O)c(-c2cccc(C(F)(F)F)c2)c1
185 to 191 | CCC1(CC(=O)O)CCC(c2ccccc2)c2c1n(C)c1cc(OCc3ccc4ccccc4n3)ccc21 (stereo unspecified)

SMILES | melting point [°C]
O[C@H](COc1cccc2[nH]ccc12)CN1CC=C(c2c[nH]c3c(Cl)cccc23)CC1 | 85 to 90
CC(C)N(CCC1(c2ccccc2)C(=O)NCN2CCCCC21)C(C)C (stereo unspecified) | 164 to 166
CN1CCN(c2nc3ccccc3[nH]2)CC1 | 222 to 224
COCN1C(=O)CN=C(c2ccccc2)c2cc(NO)ccc21 | 168 to 170
